IC50 data for 33 compounds are collected here from patent US10329270B2, “Heteroaryl compounds as BTK inhibitors and uses thereof” (Merck Patent GmbH, priority 2013, dated 2019).

Usually IC50 stands for the midpoint of a concentration-inhibition curve.

In this experiment the target is T1, full-length human BTK (Homo sapiens, UniProt Q06187).
T1 construct: 2.5× stocks of full-length human BTK (08-080); purchased CarnaBio USA, Inc., Natick, Mass; 08-080
T1 sequence (Q06187 whole entry): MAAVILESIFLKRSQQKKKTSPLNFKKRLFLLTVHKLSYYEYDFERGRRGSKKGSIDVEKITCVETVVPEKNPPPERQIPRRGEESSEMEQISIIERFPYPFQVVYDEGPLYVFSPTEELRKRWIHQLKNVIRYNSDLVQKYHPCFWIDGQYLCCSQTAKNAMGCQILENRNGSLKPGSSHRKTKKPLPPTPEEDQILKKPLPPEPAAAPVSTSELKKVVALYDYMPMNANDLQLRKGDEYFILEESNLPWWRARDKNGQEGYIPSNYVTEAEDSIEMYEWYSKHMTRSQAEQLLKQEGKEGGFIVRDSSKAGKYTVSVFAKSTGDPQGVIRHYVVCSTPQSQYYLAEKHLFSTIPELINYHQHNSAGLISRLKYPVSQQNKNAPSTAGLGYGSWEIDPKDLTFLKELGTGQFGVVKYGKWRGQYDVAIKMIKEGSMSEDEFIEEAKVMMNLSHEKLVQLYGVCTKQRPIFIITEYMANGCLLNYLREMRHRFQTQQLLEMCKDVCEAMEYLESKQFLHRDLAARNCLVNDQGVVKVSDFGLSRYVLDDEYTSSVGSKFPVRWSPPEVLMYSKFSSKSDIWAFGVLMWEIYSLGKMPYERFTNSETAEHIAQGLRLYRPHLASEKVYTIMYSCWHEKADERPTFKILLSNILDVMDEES
In words: Assay A: BTK IC50 Enzyme Assay (microfluidic off-chip mobility shift kinase assay). It is filed as biochemical. Conditions: full-length human BTK, kinKDR peptide substrate, incubated 90 min at 27 C; read-out: Assay A (Time Dependent BTK Enzyme Assay IC50). On the procedure:
Assay A: BTK IC50 Enzyme Assay
The following describes a microfluidic, off-chip mobility shift kinase assay used to measure inherent potency of compounds against BTK enzyme. Compounds described by embodiments of the present invention were assayed using this protocol and the data from the same is recorded in Table 2 within the column labeled: “Time Dependent BTK Enzyme Assay IC50”.
Stopped reactions were monitored at −2 PSI, −3000 V/−700 V in a LabChip 3000 plate reader from Caliper Life Sciences, a PerkinElmer Company (Hopkinton, Mass.), and the activity was measured by off-chip mobility shift assay measuring the charge/mass difference between substrate and product resulting from peptide phosphorilation. IC50 and efficacy were determined by plotting log [Inhibitor] vs. % Activity in GeneData Screener (Basel, Switzerland). […] I<1 uM and II>1 uM.
Take `C=CC(=O)N[C@H]1CCN(c2ccc(C(N)=O)c(Nc3cccc(C)c3)n2)C1` [Compound 57, 6-((S)-3-Acryloylamino-pyrrolidin-1-yl)-2-m-tolylamino-nicotinamide]: the IC50 is less than 100 nM.

Consider `C=CC(=O)N1CCN(c2ccc(C(N)=O)c(N(C)c3cccc(C)c3)n2)CC1` [Compound 58, 6-(4-Acryloyl-piperazin-1-yl)-2-(methyl-m-tolyl-amino)-nicotinamide], for which the IC50 was in the range of 100 to 1000 nM.

For the compound `C=CC(=O)N[C@H]1CCN(c2ccc(C(N)=O)c(Nc3ccc(NC(=O)C(C)(C)C)cc3)n2)C1` [Compound 59, 6-((S)-3-Acryloylamino-pyrrolidin-1-yl)-2-[4-(2,2-dimethyl-propionylamino)-phenylamino]-nicotinamide], the IC50 lay in the range of 100 to 1000 nM.

Regarding `C=CC(=O)N[C@H]1CCN(c2ccc(C(N)=O)c(Nc3ccc(F)c(C)c3)n2)C1` [Compound 60, 6-((S)-3-Acryloylamino-pyrrolidin-1-yl)-2-(4-fluoro-3-methyl-phenylamino)-nicotinamide], the 50% inhibitory concentration (IC50) was in the range of 100 to 1000 nM.

As for `C=CC(=O)N[C@@H]1CCN(c2ccc(C(N)=O)c(N)n2)C1` [Compound 61, 6-((R)-3-Acryloylamino-pyrrolidin-1-yl)-2-amino-nicotinamide], the IC50 was 1000 to 5000 nM.

On to `C=CC(=O)N[C@H]1CCN(c2ccc(C(N)=O)c(NC3CCN(C)CC3)n2)C1` [Compound 62, 6-((S)-3-Acryloylamino-pyrrolidin-1-yl)-2-(1-methyl-piperidin-4-ylamino)-nicotinamide], for which the IC50 was more than 5000 nM.

For `C=CC(=O)N1CCC(c2ccc(C(N)=O)c(Nc3ccc(C(=O)N4CCN(C(=O)CCCCNC(=S)Nc5ccc(C6=C7C(C)=CC(C)=[N+]7[B-](F)(F)n7c(C)cc(C)c76)cc5)CC4)cc3)n2)CC1` [Compound 63, 1′-Acryloyl-6-{4-[4-(5-{3-[4-(4,4-difluoro-1,3,5,7-tetramethyl-3a,4alambda4-diaza-4lambda4-bora-s-indacen-8-yl)-phenyl]-thioureido}-pentanoyl)-piperazine-1-carbonyl]-phenylamino}-1′,2′,3′,4′,5′,6′-hexahydro-[2,4′]bipyridinyl-5-carboxylic acid amide], the IC50 was less than 100 nM.

Take `C=CC(=O)N1CCC(c2ccc(C(N)=O)c(Oc3ccc(Oc4ccccc4)cc3)n2)CC1` [Compound 64, 6-(1-acryloylpiperidin-4-yl)-2-(4-phenoxyphenoxy)nicotinamide]: the IC50 was less than 100 nM.

Turning to `C=CC(=O)N1C[C@@H]2C[C@H]1CN2c1ccc(C(N)=O)c(Oc2ccc(Oc3ccc(F)cc3F)cc2)n1` [Compound 66, 6-((1S,4S)-5-Acryloyl-2,5-diaza-bicyclo[2.2.1]hept-2-yl)-2-[4-(2,4-difluoro-phenoxy)-phenoxy]-nicotinamide], the IC50 was less than 100 nM.

`C=CC(=O)N1CCC(c2ccc(C(N)=O)c(Oc3ccc(Oc4ccccc4)cc3)n2)C1` (stereo not drawn) [Compound 70, 6-(1-acryloylpyrrolidin-3-yl)-2-(4-phenoxyphenoxy)nicotinamide]: the IC50 was less than 100 nM.

Regarding `C=CC(=O)N1C2CCC1CC(c1ccc(C(N)=O)c(Oc3ccc(Oc4ccccc4)cc3)n1)C2` (stereo not drawn) [Compound 71, 6-(8-Acryloyl-8-aza-bicyclo[3.2.1]oct-3-yl)-2-(4-phenoxy-phenoxy)-nicotinamide], the IC50 was less than 100 nM.

As for `C=CC(=O)N[C@H]1CCN(c2ccc(C(N)=O)c(Oc3ccc(Oc4cccc(F)c4)cc3)n2)C1` [Compound 73, (S)-6-(3-acrylamidopyrrolidin-1-yl)-2-(4-(3-fluorophenoxy)phenoxy)nicotinamide], the IC50 is less than 100 nM.

Consider `CN(C)C/C=C/C(=O)N1CCC(c2ccc(C(N)=O)c(Oc3ccc(Oc4ccccc4)cc3)n2)CC1` [Compound 76, 1′-((E)-4-Dimethylamino-but-2-enoyl)-6-(4-phenoxy-phenoxy)-1′,2′,3′,4′,5′,6′-hexahydro-[2,4′]bipyridinyl-5-carboxylic acid amid], for which the IC50 is less than 100 nM.

Regarding `C=CC(=O)N1CCC(O)(c2ccc(C(N)=O)c(Oc3ccc(Oc4ccccc4)cc3)n2)C(O)C1` (stereo not drawn) [Compound 77, 1′-Acryloyl-3′,4′-dihydroxy-6-(4-phenoxy-phenoxy)-1′,2′,3′,4′,5′,6′-hexahydro-[2,4′]bipyridinyl-5-carboxylic acid amide], the IC50 is less than 100 nM.

On to `C=CC(=O)N[C@H]1CCN(c2ccc(C(N)=O)c(Oc3ccc(Oc4cccc(C#N)c4)cc3)n2)C1` [Compound 79, (S)-6-(3-acrylamidopyrrolidin-1-yl)-2-(4-(3-cyanophenoxy)phenoxy)nicotinamide], for which the IC50 was less than 100 nM.

With `C=CC(=O)Nc1cccc(-c2ccc(C(N)=O)c(Oc3ccc(Oc4ccccc4)cc3)n2)c1` [Compound 80, 6-(3-acrylamidophenyl)-2-(4-phenoxyphenoxy)nicotinamide], the IC50 was less than 100 nM.

Consider `C=CC(=O)N1CCC(c2ccc(C(N)=O)c(Oc3ccc(Oc4ccc(C)cc4)cc3)n2)C1` (stereo not drawn) [Compound 81, 6-(1-acryloylpyrrolidin-3-yl)-2-(4-(p-tolyloxy)phenoxy)nicotinamide], for which the IC50 was less than 100 nM.

With `C=CC(=O)N[C@H]1CCN(c2ccc(C(N)=O)c(Oc3ccc(Oc4cccc(C(F)(F)F)c4)cc3)n2)C1` [Compound 82, (S)-6-(3-acrylamidopyrrolidin-1-yl)-2-(4-(3-(trifluoromethyl)phenoxy)phenoxy)nicotinamide], the IC50 was less than 100 nM.

Regarding `C=CC(=O)N1CCC=C(c2ccc(C(N)=O)c(Oc3ccc(Oc4ccccc4)cc3)n2)C1` [Compound 83, 1′-Acryloyl-6-(4-phenoxy-phenoxy)-1′,2′,5′,6′-tetrahydro-[2,3′]bipyridinyl-5-carboxylic acid amide], the IC50 was less than 100 nM.

Take `C=CC(=O)NCc1cncc(-c2ccc(C(N)=O)c(Oc3ccc(Oc4ccccc4)cc3)n2)c1` [Compound 84, 5′-(acrylamidomethyl)-6-(4-phenoxyphenoxy)-[2,3′-bipyridine]-5-carboxamide]: the half-inhibitory concentration (IC50) is less than 100 nM.

In the case of `C=CC(=O)N[C@H]1CCN(c2ccc(C(N)=O)c(Oc3ccc(Oc4ccc(C)cc4)cc3)n2)C1` [Compound 85, (S)-6-(3-acrylamidopyrrolidin-1-yl)-2-(4-(p-tolyloxy)phenoxy)nicotinamide], the IC50 was 100 to 1000 nM.

Turning to `NC(=O)c1ccc(C2CCN(C(=O)/C=C/CN3CCN(CCNC(=O)CCCC[C@@H]4SC[C@@H]5NC(=O)N[C@@H]54)CC3)CC2)nc1Oc1ccc(Oc2ccccc2)cc1` [Compound 86, 6-(1-((E)-4-(4-(2-(5-((3aS,4S,6aR)-2-oxohexahydro-1H-thieno[3,4-d]imidazol-4-yl)pentanamido)ethyl)piperazin-1-yl)but-2-enoyl)piperidin-4-yl)-2-(4-phenoxyphenoxy)nicotinamide], the IC50 was 100 to 1000 nM.

As for `C=CC(=O)N1CCCC(c2ccc(C(N)=O)c(Oc3ccc(Oc4ccccc4)cc3)n2)C1` (stereo not drawn) [Compound 87, 1′-Acryloyl-6-(4-phenoxy-phenoxy)-1′,2′,3′,4′,5′,6′-hexahydro-[2,3′]bipyridinyl-5-carboxylic acid amide], the IC50 fell in the range of 100 to 1000 nM.

Take `C=CC(=O)N1CC=C(c2ccc(C(N)=O)c(Oc3ccc(Oc4ccccc4)cc3)n2)C1` [Compound 88, 6-(1-acryloyl-2,5-dihydro-1H-pyrrol-3-yl)-2-(4-phenoxyphenoxy)nicotinamide]: the concentration for half-maximal inhibition (IC50) lay within 100 to 1000 nM.

For `C=CC(=O)NCc1ccc(-c2ccc(C(N)=O)c(Oc3ccc(Oc4ccccc4)cc3)n2)cc1` [Compound 89, 6-(4-(acrylamidomethyl)phenyl)-2-(4-phenoxyphenoxy)nicotinamide], the IC50 lay in the range of 100 to 1000 nM.

For the compound `C=CC(=O)N[C@H]1CCN(c2ccc(C(N)=O)c(Oc3ccc(OCc4ccccc4)cc3)n2)C1` [Compound 90, (S)-6-(3-acrylamidopyrrolidin-1-yl)-2-(4-(benzyloxy)phenoxy)nicotinamide], the IC50 was in the range of 100 to 1000 nM.

As for `C=CC(=O)N[C@H]1CCN(c2ccc(C(N)=O)c(Oc3cccnc3)n2)C1` [Compound 92, 6-((S)-3-Acryloylamino-pyrrolidin-1-yl)-2-(pyridin-3-yloxy)-nicotinamide], the IC50 fell in the range of 100 to 1000 nM.

Turning to `CC(C)=CC(=O)C1CCN(c2ccc(C(N)=O)c(Oc3ccc(Oc4ccccc4)cc3)n2)C1` (stereo not drawn) [Compound 93, 6-[3-(3-Methyl-but-2-enoyl)-pyrrolidin-1-yl]-2-(4-phenoxy-phenoxy)-nicotinamide], the IC50 was in the range of 100 to 1000 nM.

As for `C=CC(=O)N[C@H]1CCN(c2ccc(C(N)=O)c(Oc3ccc(NC(=O)c4ccccc4)cc3)n2)C1` [Compound 95, (S)-6-(3-acrylamidopyrrolidin-1-yl)-2-(4-benzamidophenoxy)nicotinamide], the IC50 was in the range of 100 to 1000 nM.

Take `C=CC(=O)N[C@H]1CCN(c2ccc(C(N)=O)c(Oc3ccc(C(=O)Nc4ccccc4)cc3)n2)C1` [Compound 96, (S)-6-(3-acrylamidopyrrolidin-1-yl)-2-(4-(phenylcarbamoyl)phenoxy)nicotinamide]: the IC50 lay within 1000 to 5000 nM.

In the case of `C=CC(=O)N[C@H]1CCN(c2ccc(C(N)=O)c(Oc3cnn(Cc4ccccc4)c3)n2)C1` [Compound 97], the IC50 was 1000 to 5000 nM.

`C=CC(=O)NCc1cccc(-c2ccc(C(N)=O)c(Oc3ccc(Oc4ccccc4)cc3)n2)c1` [Compound 98, 6-(3-(acrylamidomethyl)phenyl)-2-(4-phenoxyphenoxy)nicotinamide]: the IC50 lay within 1000 to 5000 nM.

Regarding `C=CC(=O)N1CCC(c2ccc(C(N)=O)c(Oc3ccc(NC(=O)c4ccccc4)cc3)n2)C1` (stereo not drawn) [Compound 99, 6-(1-acryloylpyrrolidin-3-yl)-2-(4-benzamidophenoxy)nicotinamide], the half-inhibitory concentration (IC50) was 1000 to 5000 nM.
